Reference: patent publication US8779120B2, “Macrocyclic derivatives of glycolurils, and methods of preparing and using the same” (Masarykova Univerzita, priority 2009, dated 2014)

Assays:
[1] = 1H NMR competition of dodecamethylbambus[6]uril-HCl complex with tetrabutylammonium bromide, association constant; type: binding; conditions: CD3OD:CDCl3=2:1, equimolar mixture, overall concentration 5 mM
Experimental: (§1) Equimolar mixture of dodecamethylbambus[6]uril-HCl complex and tetrabutylammonium bearing bromide, iodide, and tetrafluoroborate anions was dissolved in the mixture of CD3OD:CDCl3=2:1 to obtain solution in which overall concentration of dissolved solids was 5 mM. In all cases obtained ^1H NMR spectrum was identical with the spectrum of corresponding complex (see Example 20-22). As signals corresponding to dodecamethylbambus[6]uril-HCl complex were not observed the value of association constants for all complexes was calculated to be higher than 5×10^4 M^−1.

[2] = 1H NMR competition of dodecamethylbambus[6]uril-HCl complex with tetrabutylammonium iodide, association constant; type: binding; conditions: CD3OD:CDCl3=2:1, equimolar mixture, overall concentration 5 mM
Experimental: as §1

[3] = 1H NMR competition of dodecamethylbambus[6]uril-HCl complex with tetrabutylammonium tetrafluoroborate, association constant; type: binding; conditions: CD3OD:CDCl3=2:1, equimolar mixture, overall concentration 5 mM
Experimental: as §1

[4] = Solubility of anion free macrocycle in studied solvent systems; type: physicochemical; conditions: anion free form; chloroform, methanol, DMSO, acetonitrile, water or the mixtures of these solvents
Experimental: Dodecamethylbambus[6]uril-HI complex (0.5 g) was dissolved in the mixture of chloroform (50 ml) and methanol (50 ml). 30% H2O2 (0.25 ml) was added and the solution was stirred at room temperature for 24 h. The resulting white precipitate was collected by filtration and washed with equimolar mixture of chloroform and methanol. […] When tetrabutylammonium bearing bromide, iodide, and tetrafluoroborate anions is added to the suspension of obtained white powder in equimolar mixture of chloroform and methanol the immediate formation of transparent solution was observed. ^1H NMR spectra of the solutions correspond to the spectra of the complex between dodecamethylbambus[6]uril and corresponding anion.
Titanium dioxide powder (Aeroxide P25, typically 0.1 mg) was suspended in a solution of dodecamethylbambus[6]uril-HI complex (5.0 mM) in acetonitrile/water (1:1, 0.5 mL) in a standard quartz UV cuvette. The mixture was purged with oxygen for 5 min and irradiated at either wave lengths 254 or 366 nm. After 4 h white precipitated of anion free dodecamethylbambus[6]uril was obtained in 87% yield. […]

With `CN1C(=O)N(C)[C@@H]2[C@H]1N1CN3C(=O)N(CN4C(=O)N(CN5C(=O)N(CN6C(=O)N(CN7C(=O)N(CN2C1=O)[C@@H]1[C@H]7N(C)C(=O)N1C)[C@@H]1[C@H]6N(C)C(=O)N1C)[C@@H]1[C@H]5N(C)C(=O)N1C)[C@@H]1[C@H]4N(C)C(=O)N1C)[C@@H]1[C@H]3N(C)C(=O)N1C` [dodecamethylbambus[6]uril, Dodecamethylbambus[6]uril] the “association constant of complex with bromide anion” value [1] was “higher than 5×10^4 M^−1”, the “association constant of complex with iodide anion” value [2] was “higher than 5×10^4 M^−1” and the “association constant of complex with tetrafluoroborate anion” value [3] was “higher than 5×10^4 M^−1”. The “solubility of the anion free powder” value [4] was “does not dissolve”.
